This passage reports IC50 results from patent US6677333B1, “2H-phthalazin-1-one derivatives and drug containing its derivatives as active ingredient” (Ono Pharmaceutical Co., Ltd., priority 1999, dated 2004).

pIC50: −log10 of the molar value. Structures can show the parent of a compound that is named as a salt.

The target in this experiment is T1, PARP (Homo sapiens, UniProt P09874).
T1 construct: purchased TREVIGEN
The experiment can be described thus: Enzyme assay in vitro (PARP inhibitory activity). It counts as biochemical. To be noted: PARP (TREVIGEN), activated DNA, 10 minutes reaction, 100% of control = distilled water; example 5 tested as trifluoro acetate. The procedure:
The below procedure was carried out with 96 well plate. The reaction mixture contained 50 mM Tris/HCl (pH 8.0, WAKO), 10 mM MgCl2, 5 mM dithiothreitol (sigma), and 0.5 mg/mL activated DNA in 80 μL. The 10 μL of test compound was added to the reaction mixture and the reaction was started by addition of 10 μL of […] PARP (TREVIGEN). The reaction was terminated at 10 minutes by addition of 100 μL of 20% trichloroacetic acid. The reaction product was collected on a glass fiber filter (GF/C, PACKARD). The radioactivity was measured by topcount (PACKARD). Inhibitory activity of the compound was represented by 50% inhibitory concentration (IC50) calculated 100% of control (distilled water).

T1 sequence (P09874 whole entry): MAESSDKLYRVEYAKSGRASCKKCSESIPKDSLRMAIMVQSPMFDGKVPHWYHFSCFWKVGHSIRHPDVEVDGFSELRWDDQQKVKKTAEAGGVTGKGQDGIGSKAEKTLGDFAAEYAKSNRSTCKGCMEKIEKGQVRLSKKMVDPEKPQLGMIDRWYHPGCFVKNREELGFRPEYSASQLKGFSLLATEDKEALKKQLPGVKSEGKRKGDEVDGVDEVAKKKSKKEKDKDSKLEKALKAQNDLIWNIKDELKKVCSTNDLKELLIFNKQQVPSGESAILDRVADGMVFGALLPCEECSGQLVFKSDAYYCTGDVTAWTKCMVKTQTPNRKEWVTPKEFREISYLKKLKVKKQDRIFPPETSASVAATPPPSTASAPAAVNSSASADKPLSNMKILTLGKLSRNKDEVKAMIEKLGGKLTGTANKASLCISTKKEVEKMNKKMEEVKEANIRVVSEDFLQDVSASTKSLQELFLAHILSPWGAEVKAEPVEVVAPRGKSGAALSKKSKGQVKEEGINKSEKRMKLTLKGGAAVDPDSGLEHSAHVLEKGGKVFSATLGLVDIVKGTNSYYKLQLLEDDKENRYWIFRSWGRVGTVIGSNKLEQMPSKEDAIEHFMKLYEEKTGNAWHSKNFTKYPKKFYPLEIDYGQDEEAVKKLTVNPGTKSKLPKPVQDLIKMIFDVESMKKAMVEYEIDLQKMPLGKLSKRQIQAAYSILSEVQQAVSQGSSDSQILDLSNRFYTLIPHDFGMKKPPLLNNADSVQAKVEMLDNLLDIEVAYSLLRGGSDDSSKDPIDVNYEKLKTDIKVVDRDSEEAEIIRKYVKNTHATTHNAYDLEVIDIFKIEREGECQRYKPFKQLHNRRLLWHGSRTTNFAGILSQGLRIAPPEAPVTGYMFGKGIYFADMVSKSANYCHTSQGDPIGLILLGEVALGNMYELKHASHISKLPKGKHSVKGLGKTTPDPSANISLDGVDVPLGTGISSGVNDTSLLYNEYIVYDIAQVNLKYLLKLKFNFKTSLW

Take `NCCSCC(=O)Nc1cccc(-c2n[nH]c(=O)c3ccccc23)c1` [5(10), 4-(3-(2-(2-Aminoethylthio)acetylamino)phenyl)-2H-phthalazin-1-one Hydrochloride]: the pIC50 (as a rule, the IC50 on a negative log10 scale, so that one unit is a factor of ten) was 7.30. The compound `NCCCCC(=O)Nc1cccc(-c2n[nH]c(=O)c3ccccc23)c1` [compound 5] had a pIC50 of 7.38.
